Marks after values point to notes of the source that are not given here.
What was measured:
[1] = Mortality, body weight, spleen and thymus indices in LLC-bearing mice; assay type: in vivo, C57 mice; details: cisplatin 4 mg/kg ip q3d
Experimental: Healthy LLC cells were inoculated subcutaneously into the left shoulder of 5 healthy male C57 mice. Once tumors reached a volume of 2,000-3,000 mm^3, they were harvested and homogenized to prepare a homogenate suspension. This suspension was then injected subcutaneously into the axilla of 60 healthy male C57 mice to establish a solid tumor model. Once all mouse tumors averaged a volume of about 150 mm^3, mice were randomized into groups based on tumor volume and were administered the respective drugs or drug solvents via oral gavage or intraperitoneal injection for 19 consecutive days. Longest and shortest diameters of tumors were measured every three days to calculate tumor volume, and mouse weights were recorded every three days. At the end of the experiment, tumors, spleens, and thymuses were harvested and weighed to calculate tumor, spleen, and thymus indices.
(§1) Spleen and thymus organ coefficients: After the last dose, spleen, thymus, and tumor weights are measured, and organ coefficients are calculated.
(§2) Immune organ index (mg/g)=(organ mass/body weight)×1000.

[2] = Mortality, body weight, spleen and thymus indices in H22-bearing mice; assay type: in vivo, C57 mice; details: sc H22 mice, cisplatin 3 mg/kg ip q3d
Experimental: A homogenate suspension of H22 hepatoma solid tumors was injected subcutaneously under the axilla of 50 healthy male C57 mice to create a solid tumor model. Once all mouse tumors averaged a volume of about 200 mm^3, mice were randomized into groups based on tumor volume and were administered the respective drugs or drug solvents via oral gavage or intraperitoneal injection for 22 consecutive days. Longest and shortest diameters of tumors were measured every three days to calculate tumor volume, and mouse weights were recorded every three days. At the end of the experiment, tumors, spleens, and thymuses were harvested and weighed to calculate tumor, spleen, and thymus indices.
as §1, §2

[3] = Histopathological examination of liver, spleen and thymus in orthotopic H22-bearing mice; assay type: in vivo, C57 mice; details: radiotherapy 2 Gy/d + cisplatin 4 mg/kg ip q3d
From the text: Liver cancer (H22) cells, labeled with Luc fluorescent marker at a concentration of 1×10^7 cells/mL, were initially inoculated into the peritoneal cavity of 8 male C57 mice. After the development of ascites, the ascitic fluid was aseptically extracted, washed with HBSS buffer, centrifuged to discard the supernatant, and stained with Trypan Blue, and cells in the ascitic fluid were counted under a microscope. The cell concentration was adjusted to […] with HBSS buffer and inoculated into the right hepatic region of 80 male C57 mice, at a volume of 10 μL per mouse, to prepare the orthotopic tumor-bearing mice. One week later, the liver tumor formation in mice was detected using a small animal in vivo imaging system. […] An additional 10 mice served as the normal control group. Except for the normal control group, all other animals underwent radiotherapy using an animal radiotherapy instrument. The animals were anesthetized, placed in homemade lead clothing, and the tumor tissue was exposed for radiation treatment at an intensity of 2 Gy/day for 5 consecutive days. The normal control group and the model control group were administered pure water by oral gavage. […] After the last dose, blood was collected from the orbital plexus to test blood WBC, RBC, liver and kidney function indicators (ALT, AST, BUN, CRE), and CD3^+/CD4^+, CD3^+/CD8^+ ratios. […]

[4] = system: lymphocyte subtypes CD3^+/CD4^+ and CD3^+/CD8^+; experiment: Blood CD3+/CD4+ and CD3+/CD8+ ratios by flow cytometry in orthotopic H22-bearing mice; assay type: in vivo, C57 mice; details: radiotherapy 2 Gy/d + cisplatin 4 mg/kg ip q3d, after the last dose, Mean ± SEM
Experimental: CD4^+ and CD8^+ content measurement: After the last dose, lymphocyte subtypes CD3^+/CD4^+ and CD3^+/CD8^+ in the blood were measured using flow cytometry.

[5] = Mortality, body weight and organ coefficients in orthotopic H22-bearing mice; details: radiotherapy 2 Gy/d + cisplatin 4 mg/kg ip q3d
From the text: Liver cancer (H22) cells, labeled with Luc fluorescent marker at a concentration of 1×10^7 cells/mL, were initially inoculated into the peritoneal cavity of 8 male C57 mice. After the development of ascites, the ascitic fluid was aseptically extracted, washed with HBSS buffer, centrifuged to discard the supernatant, and stained with Trypan Blue, and cells in the ascitic fluid were counted under a microscope. The cell concentration was adjusted to […] with HBSS buffer and inoculated into the right hepatic region of 80 male C57 mice, at a volume of 10 μL per mouse, to prepare the orthotopic tumor-bearing mice. One week later, the liver tumor formation in mice was detected using a small animal in vivo imaging system. […] An additional 10 mice served as the normal control group. Except for the normal control group, all other animals underwent radiotherapy using an animal radiotherapy instrument. The animals were anesthetized, placed in homemade lead clothing, and the tumor tissue was exposed for radiation treatment at an intensity of 2 Gy/day for 5 consecutive days. The normal control group and the model control group were administered pure water by oral gavage. […] After the last dose, blood was collected from the orbital plexus to test blood WBC, RBC, liver and kidney function indicators (ALT, AST, BUN, CRE), and CD3^+/CD4^+, CD3^+/CD8^+ ratios. The spleen, thymus, and tumors were weighed to calculate organ coefficients, and the liver, spleen, and thymus underwent histopathological examination.
Animal survival and general condition: Weight was recorded weekly, along with any deaths among the animals.
Immune organs: The thymus, spleen, tumor, and liver were weighed, and organ coefficients were calculated as follows: organ coefficient (%)=organ weight/fasting body weight×100%.

[6] = system: orthotopic H22-bearing mice; experiment: Tumor by small animal in vivo imaging, GLP-3 combined with radiotherapy, orthotopic H22-bearing mice; set-up: species or system C57 mice; details: radiotherapy 2 Gy/d + cisplatin 4 mg/kg ip q3d
Experimental: This study used the proposed clinical dose as a basis for the experiment. The radiotherapy intensity for this study was designed to be 2 Gy per day. [table] Tumor volume measurement: Tumor volume changes were measured weekly using small animal in vivo imaging technology.

[7] = system: LLC-bearing mice; experiment: Antitumor effect of GLP-3 combined with chemotherapy on LLC-bearing mice (tumor volume, inhibition rates, tumor index); assay type: in vivo, C57 mice; details: cisplatin 4 mg/kg ip q3d
Experimental: Healthy LLC cells were inoculated subcutaneously into the left shoulder of 5 healthy male C57 mice. […] This suspension was then injected subcutaneously into the axilla of 60 healthy male C57 mice to establish a solid tumor model. […] Longest and shortest diameters of tumors were measured every three days to calculate tumor volume, and mouse weights were recorded every three days. At the end of the experiment, tumors, spleens, and thymuses were harvested and weighed to calculate tumor, spleen, and thymus indices. […] [table] […] Where TRTV is the relative tumor volume in the experimental group, and CRTV is the relative tumor volume in the model control group. Relative tumor volume (RTV)=Vt/V0, where Vt is the tumor volume on day t of dosing, and V0 is the tumor volume at the time of grouping. Evaluation criteria: […] Where T represents the average tumor weight in the treatment group, and C represents the average tumor weight in the model control group. Evaluation criteria: […] Tumor index (%)=(tumor weight/body weight)×100%.

[8] = system: H22-bearing mice; experiment: Antitumor effect of GLP-3 combined with chemotherapy on H22-bearing mice (tumor volume, inhibition rates, tumor index); assay type: in vivo, C57 mice; details: sc H22 mice, cisplatin 3 mg/kg ip q3d
Experimental: Longest and shortest diameters of tumors were measured every three days to calculate tumor volume, and mouse weights were recorded every three days. At the end of the experiment, tumors, spleens, and thymuses were harvested and weighed to calculate tumor, spleen, and thymus indices. […] [table] […] Where TRTV is the relative tumor volume in the experimental group, and CRTV is the relative tumor volume in the model control group. Relative tumor volume (RTV)=Vt/V0, where Vt is the tumor volume on day t of dosing, and V0 is the tumor volume at the time of grouping. Evaluation criteria: […] Where T represents the average tumor weight in the treatment group, and C represents the average tumor weight in the model control group. Evaluation criteria: […] Tumor index (%)=(tumor weight/body weight)×100%.

[9] = after the last dose, Mean ± SEM

For `N.N.[Cl][Pt][Cl]` [Cisplatin], the Mortality rate ([1]; 19 days) was 0.0%, the Number of deaths ([1]; 19 days) was 0 and the Survival time ([1]; 19 days) was 19 ± 0 days. The Weight ([1]; D0) was 21.5 ± 1.3 g, the Weight ([1]; D3) was 20.9 ± 1.3^ g and the Weight ([1]; D6) was 20.4 ± 1.9^+ g. The Weight ([1]; D9) was 18.3 ± 2.6^+ g, the Weight ([1]; D12) was 18.6 ± 2.8^+ g and the Weight ([1]; D15) was 17.7 ± 2.7^+ g. The Weight ([1]; D19) was 16.8 ± 2.8^+ g, the Spleen index ([1]; after the last dose) was 2.84 ± 0.77^+ mg/g and the Mortality rate ([2]; 22 days) was 0.0%. The Number of deaths ([2]; 22 days) was 0, the Survival time ([2]; 22 days) was 22 ± 0 days and the Weight ([2]; D0) was 18.9 ± 0.8^+ g. For the same molecule, the Weight ([2]; D3) was 19.9 ± 0.7 g, the Weight ([2]; D6) was 19.5 ± 0.6^+ g and the Weight ([2]; D9) was 19.6 ± 0.8 g. The Weight ([2]; D12) was 19.5 ± 0.8^+ g, the Weight ([2]; D15) was 19.2 ± 0.7^+ g and the Weight ([2]; D18) was 18.5 ± 0.9^+ g. For the same molecule, the Spleen index ([2]; after the last dose) was 3.4 ± 0.3^+ mg/g, the Thymus index ([2]; after the last dose) was 0.6 ± 0.1 mg/g and the “Histopathology of liver, spleen and thymus” value [3] was “extensive H22 cell infiltration and necrosis were observed along with increased extramedullary hematopoiesis in the spleen and a decreased number of white pulp cells, with a reduction in thymic lymphocyte counts”. The “CD3^+/CD4^+” value [4] was 23.05 ± 12.70, the “CD3^+/CD8^+” value [4] was 126.56 ± 67.07 and the Mortality rate ([5]; 14 days) was 60%. The Number of deaths ([5]; 14 days) was 6, the “Number of surviving animals” value ([5]; 14 days) was 4 and the Weight ([5]; W0, Mean ± SEM) was 17.1 ± 0.4^++ g. The Weight ([5]; W1, Mean ± SEM) was 13.6 ± 0.9**^ g, the Weight ([5]; W2, Mean ± SEM) was 14.6 ± 1.0 g and the Liver coefficient [5, 9] was 7.962 ± 0.914 %. The Spleen coefficient [5, 9] was 0.424 ± 0.140 %, the Thymus coefficient [5, 9] was 0.039 ± 0.017% and the Tumor ([6]; W 0, Mean ± SEM) was 766250 ± 515323. For the same molecule, the Tumor ([6]; W 1, Mean ± SEM) was 5188000 ± 2224171, the Tumor volume ([7]; D0) was 137.9 ± 50^ mm^3 and the “Relative tumor growth inhibition rate (compared to model control group)” value (shortened to “Relative tumor growth inhibition rate”) ([7]; D3) was 4.3%. For the same molecule, the Tumor volume ([7]; D3) was 300.1 ± 102.7 mm^3, the “Relative tumor growth inhibition rate” value ([7]; D6) was 30.0% and the Tumor volume ([7]; D6) was 486.6 ± 188.9 mm^3. The “Relative tumor growth inhibition rate” value ([7]; D9) was 54.6^+ %, the Tumor volume ([7]; D9) was 771.3 ± 256^+ mm^3 and the “Relative tumor growth inhibition rate” value ([7]; D9, listed as cisplatin) was 54.6%. The “Relative tumor growth inhibition rate” value ([7]; D12) was 63.8^+ %, the Tumor volume ([7]; D12) was 1173.9 ± 488.8^+ mm^3 and the “Relative tumor growth inhibition rate” value ([7]; D12, listed as cisplatin) was 63.8%. The “Relative tumor growth inhibition rate” value ([7]; D15) was 77.3^+ %, the Tumor volume ([7]; D15) was 1409.5 ± 820.5^+ mm^3 and the “Relative tumor growth inhibition rate” value ([7]; D15, listed as cisplatin) was 77.3%. The “Relative tumor growth inhibition rate” value ([7]; D19) was 79.5^+ %, the Tumor volume ([7]; D19) was 1771.9 ± 1091.6^+ mm^3 and the “Relative tumor growth inhibition rate” value ([7]; D19, listed as cisplatin) was 79.5%. For the same molecule, the Tumor index ([7]; after the last dose) was 9.09 ± 4.19^+ %, the “Tumor growth inhibition rate vs. the model control group” value ([7]; by average tumor weight) was 74.4% and the Tumor volume ([8]; D0) was 188.2 ± 48.7 mm^3. For the same molecule, the “Relative tumor growth inhibition rate” value ([8]; D3) was 11.7%, the Tumor volume ([8]; D3) was 338.6 ± 69.1 mm^3 and the “Relative tumor growth inhibition rate” value ([8]; D6) was 19.5%. For the same molecule, the Tumor volume ([8]; D6) was 356.9 ± 77.9 mm^3, the “Relative tumor growth inhibition rate” value ([8]; D9) was 53.1^+ % and the Tumor volume ([8]; D9) was 598.5 ± 219.2^+ mm^3. For the same molecule, the “Relative tumor growth inhibition rate” value ([8]; D9, listed as cisplatin) was 53.1%, the “Relative tumor growth inhibition rate” value ([8]; D12) was 64.4^+ % and the “Relative tumor growth inhibition rate” value ([8]; D12, listed as cisplatin) was 64.4%. The “Relative tumor growth inhibition rate” value ([8]; D15) was 73.1^+ %, the Tumor volume ([8]; D15) was 900.4 ± 376.4^+ mm^3 and the “Relative tumor growth inhibition rate” value ([8]; D15, listed as cisplatin) was 73.1%. For the same molecule, the “Relative tumor growth inhibition rate” value ([8]; D18) was 71.6^+ %, the Tumor volume ([8]; D18) was 1098.3 ± 397^+ mm^3 and the “Relative tumor growth inhibition rate” value ([8]; D18, listed as cisplatin) was 71.6%. For the same molecule, the “Relative tumor growth inhibition rate” value ([8]; D22) was 75.0^+ %, the Tumor volume ([8]; D22) was 1526.5 ± 535.7^+ mm^3 and the “Relative tumor growth inhibition rate” value ([8]; D22, listed as cisplatin) was 75.0%. For the same molecule, the Tumor index ([8]; after the last dose) was 6.6 ± 2.2^+ % and the “Tumor growth inhibition rate vs. the model control group” value ([8]; by average tumor weight) was 75.7%.

Source: US20250144130A1, “POLYSACCHARIDE COMPOUND WITH A DEFINED MOLECULAR STRUCTURE THAT CAN ELIMINATE THE TOXIC SIDE EFFECTS OF CHEMOTHERAPY DRUGS” (priority 2023, published 2025)
